Results as given in PubChem BioAssay AID330 (DTP/NCI, 2004).
“And” between values parts separate entries of the source, which are not always exact repeats. Equal entries are not always repeated. Toxic doses and inconclusive results are not listed.

Tested on: P388 leukemia ip, CD2F1 mice, survival T/C
Test: NCI In Vivo Anticancer Drug Screen. Data for tumor model P388 Leukemia (intraperitoneal) in CD2F1 (CDF1) mice
Conditions: endpoint: median survival time, higher = longer survival
Method in brief: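 Mice carrying the transplanted tumor received test compound or vehicle. Survival was recorded in each group, and the value is the treated-group measurement divided by that of the vehicle-treated control group.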

[1] = dose: 50.0 mg/kg/injection, schedule: Q01DX009 (ip), vehicle: other
[2] = dose: 50.0 mg/kg/injection, schedule: Q01DX005 (ip), vehicle: saline with Tween-80
[3] = dose: 100.0 mg/kg/injection, schedule: Q01DX005 (ip), vehicle: saline with Tween-80
[4] = dose: 200.0 mg/kg/injection, schedule: Q01DX005 (ip), vehicle: saline with Tween-80
[5] = dose: 50.0 mg/kg/injection, schedule: Q01DX009 (ip), vehicle: saline
[6] = dose: 100.0 mg/kg/injection, schedule: Q01DX009 (ip), vehicle: saline
[7] = dose: 50.0 mg/kg/injection, schedule: Q01DX005 (ip), vehicle: Klucel (hydroxypropylcellulose) (HPC)
[8] = dose: 100.0 mg/kg/injection, schedule: Q01DX005 (ip), vehicle: Klucel (hydroxypropylcellulose) (HPC)
[9] = dose: 200.0 mg/kg/injection, schedule: Q01DX005 (ip), vehicle: Klucel (hydroxypropylcellulose) (HPC)
[10] = dose: 25.0 mg/kg/injection, schedule: Q01DX009 (ip), vehicle: Klucel (hydroxypropylcellulose) (HPC)
[11] = dose: 50.0 mg/kg/injection, schedule: Q01DX009 (ip), vehicle: Klucel (hydroxypropylcellulose) (HPC)
[12] = dose: 100.0 mg/kg/injection, schedule: Q01DX009 (ip), vehicle: Klucel (hydroxypropylcellulose) (HPC)
[13] = dose: 200.0 mg/kg/injection, schedule: Q01DX009 (ip), vehicle: Klucel (hydroxypropylcellulose) (HPC)
[14] = dose: 200.0 mg/kg/injection, schedule: Q01DX009 (ip), vehicle: saline

O=C(CC(O)(C(F)(F)F)C(F)(F)F)c1ccc(C(=O)CC(O)(C(F)(F)F)C(F)(F)F)cc1
T/C (dose: 12.5 mg/kg/injection, schedule: Q01DX009 (ip), vehicle: other): 100 % of control | T/C (dose: 25.0 mg/kg/injection, schedule: Q01DX009 (ip), vehicle: other): 100 % of control | T/C [1]: 100 % of control | T/C (dose: 66.0 mg/kg/injection, schedule: Q04DX003 (ip), vehicle: other): 95 % of control | T/C (dose: 100.0 mg/kg/injection, schedule: Q04DX003 (ip), vehicle: other): 95 % of control | T/C (dose: 150.0 mg/kg/injection, schedule: Q04DX003 (ip), vehicle: other): 100 % of control

Cc1ccc2c(c1)P(=O)(c1ccccc1C(O)(C(F)(F)F)C(F)(F)F)c1cc(C)ccc1O2
T/C (dose: 100.0 mg/kg/injection, schedule: Q04DX002 (ip), vehicle: Klucel (hydroxypropylcellulose) (HPC)): 101 % of control | T/C (dose: 200.0 mg/kg/injection, schedule: Q04DX002 (ip), vehicle: Klucel (hydroxypropylcellulose) (HPC)): 94 % of control | T/C (dose: 400.0 mg/kg/injection, schedule: Q04DX002 (ip), vehicle: Klucel (hydroxypropylcellulose) (HPC)): 90 % of control

O=S(O)OC1(O)CCCCC1
T/C (dose: 100.0 mg/kg/injection, schedule: Q04DX002 (ip), vehicle: saline): 110 % of control | T/C (dose: 200.0 mg/kg/injection, schedule: Q04DX002 (ip), vehicle: saline): 95 % of control | T/C (dose: 400.0 mg/kg/injection, schedule: Q04DX002 (ip), vehicle: saline): 100 % of control

CC(=O)ONC(=O)CSc1nn2cc(-c3ccccc3)nc2s1
T/C [2]: 103 % of control | T/C [3]: 97 % of control | T/C [4]: 95 % of control

Cc1ccc(S(=O)(=O)N/N=C/c2c(-c3ccccc3)nc3n2CCS3)cc1
T/C (dose: 100.0 mg/kg/injection, schedule: Q01DX001 (ip), vehicle: Klucel (hydroxypropylcellulose) (HPC)): 99 % of control | T/C (dose: 200.0 mg/kg/injection, schedule: Q01DX001 (ip), vehicle: Klucel (hydroxypropylcellulose) (HPC)): 93 % of control | T/C (dose: 400.0 mg/kg/injection, schedule: Q01DX001 (ip), vehicle: Klucel (hydroxypropylcellulose) (HPC)): 94 % of control

O=C(c1cc2c(cc1Br)OCO2)N1CCc2ccccc21
T/C [1]: 93 % of control | T/C (dose: 100.0 mg/kg/injection, schedule: Q01DX009 (ip), vehicle: other): 105 % of control | T/C (dose: 200.0 mg/kg/injection, schedule: Q01DX009 (ip), vehicle: other): 109 % of control

Nc1c(CC(=O)O)cccc1C(=O)c1ccccc1
T/C [5]: 87 % of control | T/C [6]: 92 % of control

O=C(O)C(Cc1ccc(C(=O)C(F)(F)F)cc1)NC(=O)C(F)(F)F (stereo not given)
T/C (dose: 100.0 mg/kg/injection, schedule: Q04DX003 (ip), vehicle: saline with Tween-80): 100 % of control | T/C (dose: 200.0 mg/kg/injection, schedule: Q04DX003 (ip), vehicle: saline with Tween-80): 103 % of control | T/C (dose: 400.0 mg/kg/injection, schedule: Q04DX003 (ip), vehicle: saline with Tween-80): 99 % of control

COc1cc2c[n+](C)c3c4cc(OC)c(OC)cc4c(OCc4ccccc4)cc3c2cc1OC
T/C (dose: 6.25 mg/kg/injection, schedule: Q01DX005 (ip), vehicle: saline with Tween-80): 123 % of control and 124 % of control | T/C (dose: 12.5 mg/kg/injection, schedule: Q01DX005 (ip), vehicle: saline with Tween-80): 124 % of control

N#CC1(c2ccccc2)C(c2ccccc2)=CC(=C2C(=O)NC(=O)N(c3ccccc3)C2=O)C=C1c1ccccc1 (stereo not given)
T/C [7]: 100 % of control | T/C [8]: 104 % of control | T/C [9]: 98 % of control

CN1C(=O)Cc2ccccc21
T/C [10]: 99 % of control | T/C [11]: 101 % of control | T/C [12]: 105 % of control | T/C [13]: 99 % of control

CNP(=O)(N(C)C)N(C)C
T/C [5]: 96 % of control | T/C [6]: 98 % of control | T/C [14]: 106 % of control

OCC1(CO)COC2(CCCCC2)N1
T/C [5]: 107 % of control | T/C [6]: 101 % of control and 120 % of control | T/C [14]: 100 % of control and 124 % of control

CC([NH-])C[NH-].[Br][Pt+2][Br] (stereo not given)
T/C (dose: 12.5 mg/kg/injection, schedule: Q04DX002 (ip), vehicle: saline with Tween-80): 158 % of control | T/C (dose: 25.0 mg/kg/injection, schedule: Q04DX002 (ip), vehicle: saline with Tween-80): 174 % of control

COc1ccc(N2CC[N+](c3ccc(N(C)C)cc3)=C2C2=[N+](c3ccc(N(C)C)cc3)CCN2c2ccc(OC)cc2)cc1
T/C (dose: 12.5 mg/kg/injection, schedule: Q01DX009 (ip), vehicle: Klucel (hydroxypropylcellulose) (HPC)): 91 % of control | T/C [10]: 91 % of control | T/C [11]: 91 % of control

O=C(O)CCCC(=O)NC1CC2c3ccccc3C1c1ccccc12 (stereo not given)
T/C (dose: 75.0 mg/kg/injection, schedule: Q01DX009 (ip), vehicle: saline with Tween-80): 100 % of control | T/C (dose: 100.0 mg/kg/injection, schedule: Q04DX003 (ip), vehicle: saline sonified): 100 % of control | T/C (dose: 150.0 mg/kg/injection, schedule: Q01DX009 (ip), vehicle: saline with Tween-80): 100 % of control | T/C (dose: 200.0 mg/kg/injection, schedule: Q04DX003 (ip), vehicle: saline sonified): 105 % of control | T/C (dose: 400.0 mg/kg/injection, schedule: Q04DX003 (ip), vehicle: saline sonified): 100 % of control

CCCCCCCCCCCCC(O)CCC1CCCCN1 (stereo not given)
T/C (dose: 50.0 mg/kg/injection, schedule: Q01DX005 (ip), vehicle: saline): 102 % of control | T/C (dose: 100.0 mg/kg/injection, schedule: Q01DX005 (ip), vehicle: saline): 105 % of control

Cn1cc2c(c1-c1ccccc1)[n+](=O)c1ccccc1n2[O-]
T/C [2]: 94 % of control | T/C [3]: 91 % of control | T/C [4]: 95 % of control

Cc1ccc(CC2C=CCN2)cc1 (stereo not given)
T/C (dose: 100.0 mg/kg/injection, schedule: Q01DX001 (ip), vehicle: distilled water + alcohol): 99 % of control | T/C (dose: 200.0 mg/kg/injection, schedule: Q01DX001 (ip), vehicle: distilled water + alcohol): 100 % of control

C[n+]1c(-c2ccc(/C=N/Nc3n[nH]c(=S)n3/N=C/c3ccc(-c4cn5ccsc5[n+]4C)cc3)cc2)cn2ccsc21
T/C (dose: 1.87 mg/kg/injection, schedule: Q01DX005 (ip), vehicle: saline with Tween-80): 101 % of control

COc1ccc(/C=C2/N=C(c3ccc(Cl)c(Cl)c3)OC2=O)cc1OC
T/C [7]: 90 % of control | T/C [8]: 88 % of control | T/C [9]: 94 % of control

COc1cc(OC)c2c(=O)cc(-c3ccccc3)sc2c1
T/C (dose: 100.0 mg/kg/injection, schedule: Q01DX001 (ip), vehicle: saline with Tween-80): 100 % of control | T/C (dose: 200.0 mg/kg/injection, schedule: Q01DX001 (ip), vehicle: saline with Tween-80): 94 % of control | T/C (dose: 400.0 mg/kg/injection, schedule: Q01DX001 (ip), vehicle: saline with Tween-80): 95 % of control

COc1ccc(C(O)(CCN2CCOCC2)c2ccc3c(c2)OCO3)cc1 (stereo not given)
T/C [7]: 90 % of control | T/C [8]: 91 % of control

C[N+]1(CI)CC2CC(C1)C[N+](C)(CI)C2 (stereo not given)
T/C (dose: 12.5 mg/kg/injection, schedule: Q01DX009 (ip), vehicle: saline): 105 % of control | T/C (dose: 25.0 mg/kg/injection, schedule: Q01DX009 (ip), vehicle: saline): 110 % of control | T/C [5]: 108 % of control

Cc1ccc2cccc(OC(=O)Nc3cc(Cl)c(Cl)cc3Cl)c2n1
T/C (dose: 15.0 mg/kg/injection, schedule: Q01DX005 (ip), vehicle: saline with Tween-80): 100 % of control | T/C (dose: 30.0 mg/kg/injection, schedule: Q01DX005 (ip), vehicle: saline with Tween-80): 93 % of control | T/C (dose: 60.0 mg/kg/injection, schedule: Q01DX005 (ip), vehicle: saline with Tween-80): 93 % of control | T/C (dose: 240.0 mg/kg/injection, schedule: Q01DX005 (ip), vehicle: saline with Tween-80): 94 % of control

CCCCCSc1nc2ccc(NCN3C(=O)C4C5C=CC(C5)C4C3=O)cc2s1 (stereo not given)
T/C [11]: 98 % of control | T/C [12]: 86 % of control | T/C [13]: 92 % of control

C[C@@H]1C[C@@H]2OC(=O)[C@]3(C)[C@H]2[C@@H](OC3(C)O)[C@]2(C)C(=O)C=C[C@@H]12 (stereo not given in full)
T/C (dose: 4.25 mg/kg/injection, schedule: Q01DX009 (ip), vehicle: Klucel (hydroxypropylcellulose) (HPC)): 104 % of control | T/C (dose: 8.5 mg/kg/injection, schedule: Q01DX009 (ip), vehicle: Klucel (hydroxypropylcellulose) (HPC)): 102 % of control and 109 % of control | T/C (dose: 17.0 mg/kg/injection, schedule: Q01DX009 (ip), vehicle: Klucel (hydroxypropylcellulose) (HPC)): 119 % of control and 120 % of control
